pKi: −log10 of the molar value.

The target of the assay is Human immunodeficiency virus type 1 protease (Human immunodeficiency virus 1, UniProt Q72874). Description: Inhibitory activity was determined against HIV type 1 protease.
A word on the pKi: it is −log10 of the Ki, conventionally taken in molar units. High values mean a small Ki, low ones a large Ki. Turning to `CC(C)[C@H](NC(=O)[C@H](NCc1ccc(Cl)cc1)[C@H](O)[C@@H](N)Cc1ccccc1)C(=O)NCc1nc2ccccc2[nH]1`, the pKi was 6.74. With `CC(C)(C)OC(=O)N[C@@H](Cc1ccccc1)[C@@H](O)[C@@H](NCc1ccc(CNC(=O)CCc2nc3ccccc3[nH]2)cc1)C(=O)NC(CO)c1ccccc1` (stereo not given in full) the figure was 5.60; with `COc1ccc(CN[C@@H](C(=O)N[C@@H]2c3ccccc3CC2O)[C@H](O)[C@H](Cc2ccccc2)NC(=O)[C@@H](NC(=O)OCc2ccccc2)C(C)(C)C)cc1` (stereo not given in full), 8.02; with `CC(C)[C@H](NC(=O)[C@H](NCc1ccccc1)[C@H](O)[C@H](Cc1ccccc1)NC(=O)[C@@H](NC(=O)OCC1c2ccccc2-c2ccccc21)C(C)(C)C)C(=O)NCc1ccccc1`, 7.80. With `COc1ccc(CN[C@@H](C(=O)N[C@H](C(=O)NCc2nc3ccccc3[nH]2)C(C)C)[C@H](O)[C@H](Cc2ccccc2)NC(=O)[C@@H](NC(=O)CCc2ccc(P(=O)(O)O)cc2)C(C)(C)C)cc1` the figure was 8.11; with `CCCCCCCCOC(=O)N[C@H](C(=O)N[C@@H](Cc1ccccc1)[C@@H](O)[C@@H](NCc1ccccc1)C(=O)N[C@H](C(=O)NCc1ccccc1)C(C)C)C(C)(C)C`, 7.85. `CC(C)(C)[C@H](NC(=O)OCc1ccccc1)C(=O)N[C@@H](Cc1ccccc1)[C@@H](O)[C@@H](NCc1ccc(CNC(=O)CCc2nc3ccccc3[nH]2)cc1)C(=O)NCc1ccccc1` showed a pKi of 7.27.

For `COc1ccc(CN[C@@H](C(=O)N[C@H]2c3ccccc3CC2O)[C@H](O)[C@H](Cc2ccccc2)NC(=O)[C@@H](NC(=O)OCc2ccccc2)C(C)(C)C)cc1` (stereo not given in full), the pKi was 5.74. For `CC(C)[C@H](NC(=O)OCc1ccccc1)C(=O)N[C@@H](Cc1ccccc1)[C@@H](O)[C@@H](NCc1ccccc1)C(=O)N[C@H](C(=O)NCc1ccccc1)C(C)(C)C` the value was 7.70.

Take `COc1ccc(CN[C@@H](C(=O)N[C@H](C(=O)Nc2nc3ccccc3[nH]2)C(C)C)[C@H](O)[C@H](Cc2ccccc2)NC(=O)[C@@H](NC(=O)OCc2ccccc2)C(C)C)cc1`: the pKi was 8.00. With `COc1ccc(CN[C@@H](C(=O)N[C@H](C(=O)NCc2nc3ccccc3[nH]2)C(C)C)[C@H](O)[C@@H](N)Cc2ccccc2)cc1` the figure was 6.64.

Regarding `CC(C)[C@H](NC(=O)OCc1ccccc1)C(=O)N[C@@H](Cc1ccccc1)[C@@H](O)[C@@H](Nc1ccc(-c2ccccc2)cc1)C(=O)N[C@H](C(=O)NCc1nc2ccccc2[nH]1)C(C)C`, the pKi was 8.05. With `COc1ccc(CN[C@@H](C(=O)N[C@H](C(=O)NCCc2ccc(O)cc2)C(C)C)[C@H](O)[C@H](Cc2ccccc2)NC(=O)[C@@H](NC(=O)OCc2ccccc2)C(C)C)cc1` the figure was 7.74; with `CC(=O)NCc1ccc(CN[C@@H](C(=O)N[C@H]2c3ccccc3CC2O)[C@H](O)[C@H](Cc2ccccc2)NC(=O)[C@@H](NC(=O)OCc2ccccc2)C(C)(C)C)cc1` (stereo not given in full), 8.24; with `CC(C)[C@H](NC(=O)OCc1ccccc1)C(=O)N[C@@H](Cc1ccccc1)[C@@H](O)[C@@H](NCc1ccccc1)C(=O)N[C@H](C(=O)NCc1ccc(Br)cc1)C(C)C`, 7.82.

Molecule `CC(=O)NCc1ccc(CN[C@@H](C(=O)N[C@H]2c3ccccc3CC2O)[C@H](O)[C@H](Cc2ccccc2)NC(=O)OC(C)(C)C)cc1` (stereo not given in full) showed a negative logarithm of the Ki (pKi) of 7.15. With `COc1ccc(CCN[C@@H](C(=O)N[C@H](C(=O)NCc2nc3ccccc3[nH]2)C(C)C)[C@H](O)[C@H](Cc2ccccc2)NC(=O)[C@@H](NC(=O)OCc2ccccc2)C(C)C)cc1` the figure was 7.90; with `CCOc1ccc(CN[C@@H](C(=O)N[C@H](C(=O)NCc2nc3ccccc3[nH]2)C(C)C)[C@H](O)[C@H](Cc2ccccc2)NC(=O)[C@@H](NC(=O)OCc2ccccc2)C(C)C)cc1`, 7.62; with `COC(=O)CC[C@H](NC(=O)[C@H](NCc1ccc(OC)cc1)[C@H](O)[C@H](Cc1ccccc1)NC(=O)[C@@H](NC(=O)OCc1ccccc1)C(C)C)C(=O)NCc1ccc(OC)cc1O`, 8.22.

On to `CC(C)[C@H](NC(=O)[C@H](NCc1ccccc1)[C@H](O)[C@H](Cc1ccccc1)NC(=O)[C@@H](NC(=O)CCc1ccc(O)cc1)C(C)(C)C)C(=O)NCc1ccccc1`, for which the pKi is 7.89. For `CC(C)[C@H](NC(=O)[C@H](NCc1ccccc1)[C@H](O)[C@H](Cc1ccccc1)NC(=O)[C@@H](NC(=O)[C@@H](O)Cc1ccccc1)C(C)(C)C)C(=O)NCc1ccccc1` the value was 7.82. `CC[C@H](C)[C@H](NC(=O)[C@H](NCc1ccccc1)[C@H](O)[C@H](Cc1ccccc1)NC(=O)[C@@H](NC(=O)OCc1ccccc1)C(C)C)C(=O)NCc1ccccc1`: the pKi is 7.36.

`COc1ccc(CN[C@@H](C(=O)N[C@H]2c3ccccc3CC2O)[C@H](O)[C@H](Cc2ccccc2)NC(=O)OC(C)(C)C)cc1` (stereo not given in full) had a pKi of 6.83. For `CC(C)[C@H](NC(=O)OCc1ccccc1)C(=O)N[C@@H](Cc1ccccc1)[C@@H](O)[C@@H](NCc1cccnc1)C(=O)N[C@H](C(=O)NCc1ccccc1)C(C)C` the value was 8.15; for `CC(C)[C@H](NC(=O)OCc1ccccc1)C(=O)N[C@@H](Cc1ccccc1)[C@@H](O)[C@@H](NC[C@H](O)c1ccccc1)C(=O)N[C@H](C(=O)NCc1nc2ccccc2[nH]1)C(C)C`, 7.55.

`COc1ccc(CN[C@@H](C(=O)N[C@H](C(=O)NCc2nc3cc[nH]cc-3n2)C(C)C)[C@H](O)[C@H](Cc2ccccc2)NC(=O)[C@@H](NC(=O)OCc2ccccc2)C(C)C)cc1` gave a pKi of 8.38.

Molecule `COc1ccc(CN[C@@H](C(=O)N[C@H](C(=O)NCn2nnc3ccccc32)C(C)C)[C@H](O)[C@H](Cc2ccccc2)NC(=O)[C@@H](NC(=O)OCc2ccccc2)C(C)C)cc1` showed a pKi of 7.82. With `CC(C)[C@H](NC(=O)CCCCCNC(=O)OC(C)(C)C)C(=O)N[C@@H](Cc1ccccc1)[C@@H](O)[C@@H](NCc1ccccc1)C(=O)N[C@H](C(=O)NCc1ccccc1)C(C)C` the figure was 7.68. With `COc1ccc(CN[C@@H](C(=O)NCC(=O)NCc2nc3ccccc3[nH]2)[C@H](O)[C@H](Cc2ccccc2)NC(=O)[C@@H](NC(=O)OCc2ccccc2)C(C)C)cc1` the figure was 7.81. With `COc1ccc(CN[C@@H](C(=O)N[C@H](C(=O)NCc2nc3ccccc3[nH]2)c2ccccc2)[C@H](O)[C@@H](N)Cc2ccccc2)cc1` the figure was 7.05; with `COc1ccc(CN[C@@H](C(=O)N[C@H](C(=O)NCCN(C)C)C(C)C)[C@H](O)[C@H](Cc2ccccc2)NC(=O)[C@@H](NC(=O)OCc2ccccc2)C(C)C)cc1`, 7.59; with `Cc1cn(CCO)c(=O)n(CCOC(=O)[C@@H](NC(=O)[C@H](NCc2ccccc2)[C@H](O)[C@H](Cc2ccccc2)NC(=O)[C@@H](NC(=O)OCc2ccccc2)C(C)C)C(C)C)c1=O`, 6.26.

For `CCOC(=O)[C@H](NCc1ccc(CNCc2ccccc2)cc1)[C@H](O)[C@H](Cc1ccccc1)NC(=O)[C@@H](NC(=O)OCc1ccccc1)C(C)C`, the pKi was 5.72. `CCOC(=O)[C@H](NCc1ccc(CN)cc1)[C@H](O)[C@H](Cc1ccccc1)NC(=O)[C@@H](NC(=O)OCc1ccccc1)C(C)C` had a pKi of 5.57. The molecule `COc1ccc(CN[C@@H](C(=O)N[C@H](C(=O)NCc2nc3cc[nH]cc-3n2)C(C)C)[C@H](O)[C@H](Cc2ccccc2)NC(=O)OC(C)(C)C)cc1` showed a pKi of 7.82. With `COc1ccc(CN[C@@H](C(=O)NCC(=O)Nc2cnccc2N)[C@H](O)[C@H](Cc2ccccc2)NC(=O)[C@@H](NC(=O)OCc2ccccc2)C(C)C)cc1` the figure was 5.82; with `CC(C)[C@H](NC(=O)OCCCCCN)C(=O)N[C@@H](Cc1ccccc1)[C@@H](O)[C@@H](NCc1ccccc1)C(=O)N[C@H](C(=O)NCc1ccccc1)C(C)C`, 7.48. With `CC(C)(C)OC(=O)N[C@@H](Cc1ccccc1)[C@@H](O)[C@@H](NCc1ccc(CNC(=O)Nc2ccccc2)cc1)C(=O)N[C@H]1c2ccccc2CC1O` (stereo not given in full) the figure was 7.48; with `CC(C)[C@H](NC(=O)OCc1ccccc1)C(=O)N[C@@H](Cc1ccccc1)[C@@H](O)[C@@H](NCc1ccccc1)C(=O)N[C@H](C(=O)OCc1nc2ccc([N+](=O)[O-])cc2[nH]1)C(C)C`, 7.52. With `CC(C)[C@H](NC(=O)COc1ccccc1)C(=O)N[C@@H](Cc1ccccc1)[C@@H](O)[C@@H](NCc1ccccc1)C(=O)NCc1ccccc1` the figure was 6.86. For the molecule `COc1ccc(CN[C@@H](C(=O)N[C@H](C(=O)NCc2nc3ccccc3[nH]2)C(C)C)[C@H](O)[C@H](Cc2ccccc2)NC(=O)OC(C)(C)C)cc1`, the pKi was 8.11. With `COc1ccc(CN[C@@H](C(=O)N[C@H](C(=O)N[C@H](CO)c2ccccc2)C(C)C)[C@H](O)[C@H](Cc2ccccc2)NC(=O)[C@@H](NC(=O)OCc2ccccc2)C(C)C)cc1` the figure was 7.85; with `COc1ccc(CN[C@@H](C(=O)N[C@H](C(=O)NCc2ccc(N3NC=CS3)cc2)C(C)C)[C@H](O)[C@H](Cc2ccccc2)NC(=O)[C@@H](NC(=O)OCc2ccccc2)C(C)C)cc1`, 7.85; with `CCOC(=O)[C@H](NCc1ccc(CNC(=O)c2ccccc2)cc1)[C@H](O)[C@H](Cc1ccccc1)NC(=O)[C@@H](NC(=O)OCc1ccccc1)C(C)C`, 6.03. For `CC(C)[C@H](NC(=O)OCc1ccccc1)C(=O)N[C@@H](Cc1ccccc1)[C@@H](O)[C@H](NCc1ccccc1)C(=O)N[C@H](C(=O)NCc1cccnc1)C(C)C` the value was 6.85. On to `COc1ccc(CN[C@@H](C(=O)N[C@H]2c3ccccc3CC2O)[C@H](O)[C@H](Cc2ccccc2)NC(=O)[C@@H](NC(=O)OC(C)(C)C)C(C)(C)C)cc1` (stereo not given in full), for which the pKi was 6.68. As for `CC(C)(C)[C@H](NC(=O)OCc1ccccc1)C(=O)N[C@@H](Cc1ccccc1)[C@@H](O)[C@@H](NCc1ccc(CNC(=O)Nc2ccccc2)cc1)C(=O)N[C@H]1c2ccccc2CC1O` (stereo not given in full), the pKi is 8.48. Regarding `CC(C)(C)[C@H](NC(=O)OCc1ccccc1)C(=O)N[C@@H](Cc1ccccc1)[C@@H](O)[C@@H](NCc1ccccc1)C(=O)N[C@@H]1c2ccccc2CC1O` (stereo not given in full), the pKi was 5.80. With `CC(C)(C)OC(=O)N[C@@H](Cc1ccccc1)[C@@H](O)[C@@H](NCc1ccc(OCCO)cc1)C(=O)N[C@H]1c2ccccc2CC1O` (stereo not given in full) the figure was 7.10. Turning to `CC(C)[C@H](N)C(=O)N[C@@H](Cc1ccccc1)[C@@H](O)[C@@H](NCc1ccccc1)C(=O)N[C@H](C(=O)NCc1ccccc1)C(C)C`, the negative logarithm of the Ki (pKi) is 6.13.

The values are drawn from ChEMBL document CHEMBL1128211, “3D-quantitative structure-activity relationships of human immunodeficiency virus type-1 proteinase inhibitors: comparative molecular field analysis of 2-heterosubstituted statine derivatives-implications for the design of novel inhibitors” (J Med Chem, 1995).
